From patent US9062041B2 (Bayer Intellectual Property GmbH, priority 2011, dated 2015)

How the values were obtained:
Type in all cases: cell-based
human PGD receptor = biological target: T1, human PGD receptor (Homo sapiens, UniProt Q13258); assay: cAMP antagonism test on the human prostaglandin D receptor (HTRF cAMP detection); details: selectivity towards hDP, IC50 measured by cAMP antagonism test
T1 sequence (Q13258 1-359): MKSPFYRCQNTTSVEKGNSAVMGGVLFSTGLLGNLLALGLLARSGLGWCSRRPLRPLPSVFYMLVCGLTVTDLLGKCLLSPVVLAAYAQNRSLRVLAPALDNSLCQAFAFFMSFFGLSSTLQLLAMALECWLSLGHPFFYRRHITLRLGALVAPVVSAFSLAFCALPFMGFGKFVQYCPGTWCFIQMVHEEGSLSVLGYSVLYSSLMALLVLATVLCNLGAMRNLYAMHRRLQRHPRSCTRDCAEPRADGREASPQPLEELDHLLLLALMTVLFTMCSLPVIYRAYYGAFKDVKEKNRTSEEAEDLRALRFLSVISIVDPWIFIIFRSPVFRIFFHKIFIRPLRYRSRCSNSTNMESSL
How it was run: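 Cells pre-mixed with cAMP-d2 were preincubated with compound (0.8 nM–16.5 μM) for 20 min at RT, then stimulated with 3× PGD2 solution (6 nM, in PBS-IBMX) for 30 min at RT. After lysis (20 min), HTRF read at 665/620 nm; antagonism seen as rise in FRET ratio.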

[1] = biological target: EP2 subtype of the human PGE2 receptor (Homo sapiens, UniProt P43116); assay: cAMP antagonism test on the human EP2 receptor (HTRF cAMP detection); details: hEP2 receptor, read-out: Antagonism hEP2 IC50
How it was run: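 Cells expressing human EP2 preincubated 20 min at RT with compound (0.8 nM–16.5 μM), then stimulated 60 min with PGE2 (3× solution 1.5 nM) in PBS-IBMX. After 20 min lysis, cAMP measured by competitive HTRF with cAMP-d2 and Eu cryptate anti-cAMP antibody (665/620 nm ratio).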

[2] = biological target: EP4 subtype of the human PGE2 receptor (Homo sapiens, UniProt P35408); assay: cAMP antagonism test on the human EP4 receptor (HTRF cAMP detection); details: selectivity towards hEP4, IC50 measured by cAMP antagonism test
How it was run: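 Cells expressing human EP4 preincubated 20 min at RT with compound (0.8 nM–16.5 μM), then stimulated with PGE2 (0.3 nM in 3× solution, with IBMX) 60 min at RT. After lysis, cAMP measured by HTRF competition (665/620 nm ratio); antagonism seen as rise in FRET signal.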

Sequence of EP2 subtype of the human PGE2 receptor (P43116 whole entry): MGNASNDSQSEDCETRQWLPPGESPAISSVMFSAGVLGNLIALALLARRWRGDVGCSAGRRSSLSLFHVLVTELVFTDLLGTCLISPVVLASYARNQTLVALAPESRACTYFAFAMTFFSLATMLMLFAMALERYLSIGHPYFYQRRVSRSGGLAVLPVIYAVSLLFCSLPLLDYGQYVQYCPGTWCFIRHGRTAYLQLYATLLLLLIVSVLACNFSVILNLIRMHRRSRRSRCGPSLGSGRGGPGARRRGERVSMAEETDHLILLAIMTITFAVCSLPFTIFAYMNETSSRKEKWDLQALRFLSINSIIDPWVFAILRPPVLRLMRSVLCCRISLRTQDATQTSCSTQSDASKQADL
Sequence of EP4 subtype of the human PGE2 receptor (P35408 whole entry): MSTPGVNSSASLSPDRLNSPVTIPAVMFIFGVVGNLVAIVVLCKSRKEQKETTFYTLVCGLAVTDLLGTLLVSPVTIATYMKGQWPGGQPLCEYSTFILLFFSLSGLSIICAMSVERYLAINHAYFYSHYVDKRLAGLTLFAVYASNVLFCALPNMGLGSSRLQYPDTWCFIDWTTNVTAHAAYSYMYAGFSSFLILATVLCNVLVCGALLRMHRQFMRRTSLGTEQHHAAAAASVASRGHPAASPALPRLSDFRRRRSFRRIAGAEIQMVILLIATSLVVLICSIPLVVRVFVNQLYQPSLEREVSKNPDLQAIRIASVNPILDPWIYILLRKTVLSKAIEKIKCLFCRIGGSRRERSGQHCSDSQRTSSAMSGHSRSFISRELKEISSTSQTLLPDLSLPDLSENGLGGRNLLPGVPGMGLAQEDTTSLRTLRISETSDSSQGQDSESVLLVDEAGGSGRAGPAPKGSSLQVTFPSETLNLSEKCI

Selectivity hEP2/hDP (human PGD receptor)	IC50 [1] [nM]	Selectivity hEP2/hEP4 [2]	Compound
xxx (xxx > 100)	28.3	xxx (xxx > 100)	COc1ccc2c(c1)cc(C(=O)N1CCC(Cn3cc4c(C)c(C(=O)NCC(F)(F)F)ccc4n3)CC1)n2C [Example 293, 2-({1-[(5-methoxy-1-methyl-1H-indol-2-yl)carbonyl]piperidin-4-yl}methyl)-4-methyl-N-(2,2,2-trifluoroethyl)-2H-indazol-5-carboxamide]
xxx (xxx > 100)	5.09	xxx (xxx > 100)	COCCNC(=O)c1ccc2nn(CC3CCN(C(=O)c4ccc(C5CCCCC5)cc4)CC3)cc2c1C [Example 335, 2-{[1-(4-cyclohexylbenzoyl)piperidin-4-yl]methyl}-N-(2-methoxyethyl)-4-methyl-2H-indazol-5-carboxamide]
xxx (xxx > 100)	83.5	xxx (xxx > 100)	COCCNC(=O)c1ccc2nn(CC3CN(C(=O)c4ccc(C(F)(F)F)cc4F)C3)cc2c1OC [Example 255, 2-({1-[2-fluoro-4-(trifluoromethyl)benzoyl]azetidin-3-yl}methyl)-4-methoxy-N-(2-methoxyethyl)-2H-indazol-5-carboxamide]
xxx (xxx > 100)	128	xxx (xxx > 100)	COCCNC(=O)c1ccc2nn(C[C@@H]3CCN(C(=O)c4ccc(OC(F)(F)F)cc4)C3)cc2c1C [Example 218, N-(2-methoxyethyl)-4-methyl-2-({(R)-1-[4-(trifluoromethoxy)benzoyl]-pyrrolidin-3-yl}methyl)-2H-indazol-5-carboxamide]
xxx (xxx > 100)	30.3	xxx (xxx > 100)	COCCNC(=O)c1cc2cn(CC3CCN(C(=O)c4ccc(Cl)cc4F)CC3)nc2cc1C [Example 207, 2-{[1-(4-chloro-2-fluorobenzoyl)piperidin-4-yl]methyl}-N-(2-methoxyethyl)-6-methyl-2H-indazol-5-carboxamide]
xxx (xxx > 100)	27	xxx (xxx > 100)	Cc1c(C(=O)NCC2CCCCO2)ccc2nn(CC3CCN(C(=O)c4ccc(Cl)cc4)CC3)cc12 (racemic) [Example 239, (+/−)-2-{[1-(4-chlorobenzoyl)piperidin-4-yl]methyl}-4-methyl-N-(3,4,5,6-tetrahydro-2H-pyran-2-ylmethyl)-2H-indazol-5-carboxamide]
xxx (xxx > 100)	90.4	xxx (xxx > 100)	Cc1c(C(=O)NCCO)ccc2nn(CC3CCN(C(=O)c4ccc(-c5ccc(F)cc5)cc4)CC3)cc12 [Example 410, 2-({1-[(4′-fluorobiphenyl-4-yl)carbonyl]piperidin-4-yl}methyl)-N-(2-hydroxyethyl)-4-methyl-2H-indazol-5-carboxamide]
xxx (xxx > 100)	31.5	xxx (xxx > 100)	COc1c(C(=O)NCCSC(F)(F)F)ccc2nn(CC3CCN(C(=O)c4ccc(Cl)cc4)CC3)cc12 [Example 265, 2-{[1-(4-chlorobenzoyl)piperidin-4-yl]methyl}-4-methoxy-N-{2-[(trifluoromethyl)sulphanyl]ethyl}-2H-indazol-5-carboxamide]
xxx (xxx > 100)	70.8	xxx (xxx > 100)	COc1ccc2cc(C(=O)N3CCC(Cn4cc5c(C)c(C(=O)NCC(F)(F)F)ccc5n4)CC3)n(C)c2c1 [Example 295, 2-({1-[(6-methoxy-1-methyl-1H-indol-2-yl)carbonyl]piperidin-4-yl}methyl)-4-methyl-N-(2,2,2-trifluoroethyl)-2H-indazol-5-carboxamide]
xx (xx: 10-100)	232	xx (xx: 10-100)	Cc1c(C(=O)NCC(F)(F)F)ccc2nn(CC3CCN(C(=O)c4ccc(-c5cccc(C(F)(F)F)n5)cc4)CC3)cc12 [Example 329, 4-methyl-N-(2,2,2-trifluoroethyl)-2-[(1-{4-[6-(trifluoromethyl)pyridin-2-yl]-benzoyl}piperidin-4-yl)methyl]-2H-indazol-5-carboxamide]
xx (xx: 10-100)	321	xx (xx: 10-100)	Cc1c(C(=O)NCC(F)(F)F)ccc2nn(CC3CCN(C(=O)c4ccc(-c5ccc(F)cn5)cc4)CC3)cc12 [Example 325, 2-({1-[4-(5-fluoropyridin-2-yl)benzoyl]piperidin-4-yl}methyl)-4-methyl-N-(2,2,2-trifluoroethyl)-2H-indazol-5-carboxamide]

The next lines start with the molecule.

Compound	Selectivity hEP2/hDP (human PGD receptor)	IC50 [1] [nM]	Selectivity hEP2/hEP4 [2]
COCCNC(=O)c1ccc2nn(CC3CCN(C(=O)c4ccc(-n5cncn5)cc4)CC3)cc2c1C [Example 39, N-(2-methoxyethyl)-4-methyl-2-({1-[4-(1H-1,2,4-triazol-1-yl)benzoyl]piperidin-4-yl}methyl)-2H-indazol-5-carboxamide]	xxx (xxx > 100)	113	xxx (xxx > 100)
COCCNC(=O)c1cc2cn(CC3CN(C(=O)c4ccc(Cl)c(C(F)(F)F)c4)C3)nc2cc1C [Example 185, 2-({1-[4-chloro-3-(trifluoromethyl)benzoyl]azetidin-3-yl}methyl)-N-(2-methoxy-ethyl)-6-methyl-2H-indazol-5-carboxamide]	xxx (xxx > 100)	24.8	xxx (xxx > 100)
Cc1c(C(=O)NCCN2CCOCC2)ccc2nn(CC3CCN(C(=O)c4ccc(OC(F)(F)F)cc4)CC3)cc12 [Example 59, 4-methyl-N-(2-morpholinoethyl)-2-({1-[4-(trifluoromethoxy)benzoyl]piperidin-4-yl}methyl)-2H-indazol-5-carboxamide]	xx (xx: 10-100)	758	xx (xx: 10-100)
COC(C)CNC(=O)c1cc2cn(CC3CN(C(=O)c4ccc(Cl)cc4)C3)nc2cc1C (racemic) [Example 192, (+/−)-2-{[1-(4-chlorobenzoyl)azetidin-3-yl]methyl}-N-(2-methoxypropyl)-6-methyl-2H-indazol-5-carboxamide]	xx (xx: 10-100)	206	xx (xx: 10-100)
Cc1c(C(=O)NCC2COCCO2)ccc2nn(CC3CN(C(=O)c4ccc(Cl)cc4)C3)cc12 (single isomer, unassigned) [Example 143, (S or R)-2-{[1-(4-chlorobenzoyl)azetidin-3-yl]methyl}-N-(1,4-dioxan-2-ylmethyl)-4-methyl-2H-indazol-5-carboxamide]	xxx (xxx > 100)	36.8	xxx (xxx > 100)
Cc1c(C(=O)NCCOC(C)C)ccc2nn(CC3CCN(C(=O)c4ccc(Oc5ccc(F)cc5)cc4)CC3)cc12 [Example 98, 2-({1-[4-(4-fluoro-phenoxy)benzoyl]-piperidin-4-yl}-methyl)-N-(2-isopropoxyethyl)-4-methyl-2H-indazol-5-carboxamide]	xxx (xxx > 100)	7.07	xxx (xxx > 100)
COCCNC(=O)c1ccc2nn(CC3CCN(C(=O)c4ccc(-n5cccn5)cc4)CC3)cc2c1C [Example 38, N-(2-methoxyethyl)-4-methyl-2-({1-[4-(1H-pyrazol-1-yl)-benzoyl]piperidin-4-yl}methyl)-2H-indazol-5-carboxamide]	xxx (xxx > 100)	28.1	xxx (xxx > 100)
COCCNC(=O)c1ccc2nn(CC3CCN(C(=O)c4ccc(N5CCCC5)cc4F)CC3)cc2c1C [Example 41, 2-({1-[2-fluoro-4-(pyrrolidin-1-yl)-benzoyl]piperidin-4-yl}methyl)-N-(2-methoxyethyl)-4-methyl-2H-indazol-5-carboxamide]	xxx (xxx > 100)	5.62	xxx (xxx > 100)
Cc1ccc(C(=O)N2CCC(Cn3cc4c(C)c(C(=O)NCCOC(C)C)ccc4n3)CC2)cc1 [Example 97, N-(2-isopropoxy-ethyl)-4-methyl-2-{[1-(4-methyl-benzoyl)piperidin-4-yl]methyl}-2H-indazol-5-carboxamide]	xxx (xxx > 100)	12.7	xxx (xxx > 100)
Cc1c(C(=O)NCCOC(C)C)ccc2nn(CC3CCN(C(=O)c4ccc(-c5ccc(F)cc5)cc4)CC3)cc12 [Example 100, 2-({1-[(4′-fluoro-biphenyl-4-yl)-carbonyl]piperidin-4-yl}methyl)-N-(2-isopropoxyethyl)-4-methyl-2H-indazol-5-carboxamide]	xxx (xxx > 100)	6.21	xxx (xxx > 100)
